Test results from DBAASP.
In brackets after ≈: the same amount, converted by molar mass. Values belong to the compound of their own block, whether it stands above or below them.

Tests used:
Assay in all cases: ≥ marks a high value that may be exact or a test limit, other limits are often not marked, values filed in µg/mL are converted to µM
[1] = test system: Bacillus subtilis KCTC 3068
[2] = test system: Salmonella typhimurium KCTC 1926
[3] = test system: Escherichia coli KCTC 1682
[4] = test system: Pseudomonas aeruginosa KCTC 1637
[5] = test system: Staphylococcus epidermidis KCTC 1917
[6] = test system: Staphylococcus aureus KCTC 1621
Bacillus subtilis = test system: Bacillus subtilis
Escherichia coli = test system: Escherichia coli
[7] = test system: Staphylococcus aureus ATCC BAA-1556
[8] = test system: Escherichia coli DH5alpha

MIC [7]: ≥ 100 µM
Compound: CC(C)C[C@H](NC(=O)[C@H](CCCCN)NC(=O)[C@H](CC(C)C)NC(=O)[C@H](CC(C)C)NC(=O)[C@H](CC(C)C)NC(=O)[C@H](CC(C)C)NC(=O)[C@H](CCCCN)NC(=O)[C@H](CC(C)C)NC(=O)[C@@H](N)CC(C)C)C(N)=O [LLKLLLLKL]

MIC [7]: ≥ 100 µM
Compound: CC(C)C[C@H](NC(=O)[C@H](CCCCN)NC(=O)[C@H](CC(C)C)NC(=O)[C@H](CC(C)C)NC(=O)[C@H](CC(C)C)NC(=O)[C@H](CCCCN)NC(=O)[C@H](CC(C)C)NC(=O)[C@H](CC(C)C)NC(=O)[C@@H](N)CC(C)C)C(N)=O [LLLKLLLKL]

MIC [1]: 8 µM (≈ 25.1 µg/mL)
MIC [2]: 8 µM (≈ 25.1 µg/mL)
MIC [3]: 4 µM (≈ 12.6 µg/mL)
MIC [4]: 8 µM (≈ 25.1 µg/mL)
MIC [5]: 8 µM (≈ 25.1 µg/mL)
MIC [6]: 8 µM (≈ 25.1 µg/mL)
Compound: CC[C@H](C)[C@H](NC(=O)[C@H](C)NC(=O)[C@H](CCCN=C(N)N)NC(=O)[C@@H]1CCCN1C(=O)[C@H](CC(C)C)NC(=O)[C@H](CC(N)=O)NC(=O)[C@H](Cc1ccc(O)cc1)NC(=O)CNC(=O)[C@H](C)NC(=O)[C@@H](NC(=O)[C@@H](NC(=O)[C@@H](NC(=O)[C@H](CCCN=C(N)N)NC(=O)[C@@H](NC(=O)[C@@H](NC(=O)[C@H](CC(C)C)NC(=O)[C@H](Cc1ccc(O)cc1)NC(=O)[C@H](Cc1c[nH]c2ccccc12)NC(=O)[C@@H](NC(=O)[C@H](CCCN=C(N)N)NC(=O)[C@H](CCCCN)NC(=O)[C@@H](NC(=O)[C@@H](N)CCCN=C(N)N)C(C)C)C(C)C)C(C)C)[C@@H](C)CC)[C@@H](C)O)C(C)C)[C@@H](C)CC)C(=O)N[C@@H](CCCCN)C(=O)N[C@@H](CCCCN)C(=O)N[C@@H](CCCCN)C(=O)O [RVKRVWYLVIRTVIAGYNLPRAIKKK]

MIC [7]: ≥ 100 µM
Compound: CC[C@H](C)[C@H](NC(=O)[C@H](Cc1c[nH]c2ccccc12)NC(=O)[C@@H](N)CCCN=C(N)N)C(=O)N[C@@H](CCCN=C(N)N)C(=O)N[C@@H](Cc1c[nH]c2ccccc12)C(=O)N[C@@H](CC(C)C)C(N)=O [RWIRWL]

MIC [8]: 12.5 µM (≈ 26.7 µg/mL)
Compound: C[C@@H](O)[C@H](NC(=O)[C@H](CCCN=C(N)N)NC(=O)[C@H](CCCN=C(N)N)NC(=O)[C@H](CC(N)=O)NC(=O)[C@H](Cc1c[nH]c2ccccc12)NC(=O)[C@H](CCCN=C(N)N)NC(=O)[C@H](Cc1c[nH]c2ccccc12)NC(=O)[C@@H](N)CCCN=C(N)N)C(=O)NCC(=O)N[C@@H](CCCN=C(N)N)C(=O)N[C@@H](Cc1c[nH]c2ccccc12)C(=O)N[C@@H](CCCN=C(N)N)C(=O)N[C@@H](Cc1c[nH]c2ccccc12)C(=O)N[C@@H](Cc1ccc(O)cc1)C(=O)O [RWRWNRRTGRWRWY]

MIC [7]: ≥ 100 µM
Compound: CC(C)[C@H](N)C(=O)N[C@H](C(=O)N[C@@H](CCCCN)C(=O)N[C@H](C(=O)N[C@H](C(=O)N[C@H](C(=O)N[C@@H](CCCCN)C(=O)N[C@H](C(=O)N[C@H](C(N)=O)C(C)C)C(C)C)C(C)C)C(C)C)C(C)C)C(C)C [VVKVVVKVV]

MIC [7]: 6.25 µM (≈ 9.48 µg/mL)
Compound: CC(C)C[C@H](NC(=O)[C@H](Cc1c[nH]c2ccccc12)NC(=O)[C@H](Cc1c[nH]c2ccccc12)NC(=O)[C@H](CCCN=C(N)N)NC(=O)[C@H](Cc1c[nH]c2ccccc12)NC(=O)[C@H](Cc1c[nH]c2ccccc12)NC(=O)[C@H](CC(C)C)NC(=O)[C@H](Cc1c[nH]c2ccccc12)NC(=O)[C@@H](N)Cc1c[nH]c2ccccc12)C(N)=O [WWLWWRWWL]

Continued, compound first:

Compound: CC[C@H](C)[C@H](N)C(=O)N[C@@H](CC(C)C)C(=O)N1CCC[C@H]1C(=O)N[C@@H](Cc1c[nH]c2ccccc12)C(=O)N[C@@H](CCCCN)C(=O)N[C@@H](CCCCN)C(=O)N1CCC[C@H]1C(=O)N[C@@H](CCCCN)C(=O)N[C@@H](CCCCN)C(=O)N1CCC[C@H]1C(=O)N[C@@H](CCCCN)C(=O)N[C@@H](CCCN=C(N)N)C(=O)N[C@@H](CCCN=C(N)N)C(N)=O [ILPWKKPKKPKRR]
MIC [1]: 5.97 µM (≈ 9.99 µg/mL)
MIC [2]: 2.98 µM (≈ 5 µg/mL)
MIC [3]: 5.97 µM (≈ 9.99 µg/mL)
MIC [4]: 5.97 µM (≈ 9.99 µg/mL)
MIC [5]: 2.98 µM (≈ 5 µg/mL)
MIC [6]: 5.97 µM (≈ 9.99 µg/mL)

Compound: CC[C@H](C)[C@H](N)C(=O)N[C@@H](CC(C)C)C(=O)N1CCC[C@H]1C(=O)N[C@@H](Cc1c[nH]c2ccccc12)C(=O)N[C@@H](CCCCN)C(=O)N[C@@H](Cc1c[nH]c2ccccc12)C(=O)N1CCC[C@H]1C(=O)N[C@@H](CCCCN)C(=O)N[C@@H](Cc1c[nH]c2ccccc12)C(=O)N1CCC[C@H]1C(=O)N[C@@H](Cc1c[nH]c2ccccc12)C(=O)N[C@@H](CCCN=C(N)N)C(=O)N[C@@H](CCCN=C(N)N)C(N)=O [ILPWKWPKWPWRR]
MIC [1]: 5.41 µM (≈ 9.99 µg/mL)
MIC [2]: 2.7 µM (≈ 5 µg/mL)
MIC [3]: 2.7 µM (≈ 5 µg/mL)
MIC [4]: 10.8 µM (≈ 20 µg/mL)
MIC [5]: 2.7 µM (≈ 5 µg/mL)
MIC [6]: 2.7 µM (≈ 5 µg/mL)

Compound: CC[C@H](C)[C@H](N)C(=O)N[C@@H](CC(N)=O)C(=O)N[C@@H](Cc1c[nH]c2ccccc12)C(=O)N[C@@H](CCCCN)C(=O)N[C@@H](CCCCN)C(=O)N[C@H](C(=O)N[C@@H](Cc1ccccc1)C(=O)N[C@@H](CCC(=O)O)C(=O)N[C@@H](CCCCN)C(=O)N[C@H](C(=O)N[C@@H](CCCCN)C(=O)N[C@@H](CC(=O)O)C(=O)N[C@@H](CC(C)C)C(=O)N[C@H](C(N)=O)C(C)C)C(C)C)[C@@H](C)CC [INWKKIFEKVKDLV]
MIC (Bacillus subtilis): 5 µM (≈ 8.8 µg/mL)
MIC (Escherichia coli): 9 µM (≈ 15.8 µg/mL)

Compound: CC[C@H](C)[C@H](NC(=O)[C@H](Cc1c[nH]c2ccccc12)NC(=O)[C@H](CCCN=C(N)N)NC(=O)[C@H](CCCN=C(N)N)NC(=O)[C@H](C)NC(=O)[C@@H](N)CCCCN)C(=O)N[C@@H](CCCN=C(N)N)C(=O)N[C@@H](Cc1c[nH]c2ccccc12)C(=O)N[C@@H](CC(C)C)C(N)=O [KARRWIRWL]
MIC [7]: 25 µM (≈ 32.1 µg/mL)

Compound: C[C@@H](O)[C@H](NC(=O)[C@H](CCCCN)NC(=O)[C@H](Cc1c[nH]c2ccccc12)NC(=O)[C@H](Cc1c[nH]c2ccccc12)NC(=O)[C@@H](NC(=O)[C@H](CCCCN)NC(=O)[C@@H](N)CCCCN)[C@@H](C)O)C(=O)N[C@@H](Cc1c[nH]c2ccccc12)C(=O)N[C@@H](Cc1c[nH]c2ccccc12)C(=O)N[C@H](C(=O)N[C@@H](CCCCN)C(=O)N[C@@H](Cc1c[nH]c2ccccc12)C(=O)N[C@@H](CO)C(=O)N[C@@H](CCC(N)=O)C(=O)N1CCC[C@H]1C(=O)O)[C@@H](C)O [KKTWWKTWWTKWSQP]
MIC [1]: 2 µM (≈ 4.15 µg/mL)
MIC [2]: 4 µM (≈ 8.31 µg/mL)
MIC [3]: 4 µM (≈ 8.31 µg/mL)
MIC [4]: 8 µM (≈ 16.6 µg/mL)
MIC [5]: 4 µM (≈ 8.31 µg/mL)
MIC [6]: 4 µM (≈ 8.31 µg/mL)

Compound: CC(C)C[C@H](NC(=O)[C@H](CC(C)C)NC(=O)[C@H](CCCCN)NC(=O)[C@H](CC(C)C)NC(=O)[C@H](CC(C)C)NC(=O)[C@H](Cc1c[nH]c2ccccc12)NC(=O)[C@H](CCCCN)NC(=O)[C@H](CC(C)C)NC(=O)[C@H](CC(C)C)NC(=O)[C@@H](N)CCCCN)C(N)=O [KLLKWLLKLL]
MIC [7]: 3.13 µM (≈ 3.96 µg/mL)

Compound: CC(C)C[C@H](NC(=O)[C@H](CC(C)C)NC(=O)[C@H](CCCCN)NC(=O)[C@H](CC(C)C)NC(=O)[C@H](CC(C)C)NC(=O)[C@H](CC(C)C)NC(=O)[C@H](CC(C)C)NC(=O)[C@H](CC(C)C)NC(=O)[C@@H](N)CCCCN)C(N)=O [KLLLLLKLL]
MIC [7]: ≥ 100 µM

Compound: CC[C@H](C)[C@H](NC(=O)[C@H](CCCN=C(N)N)NC(=O)[C@H](CCC(N)=O)NC(=O)[C@@H](NC(=O)[C@@H](NC(=O)[C@H](CCCN=C(N)N)NC(=O)[C@@H](N)CCCCN)[C@@H](C)CC)C(C)C)C(=O)N[C@@H](CCCCN)C(=O)N[C@@H](CC(=O)O)C(=O)N[C@@H](Cc1c[nH]c2ccccc12)C(=O)N[C@@H](CC(C)C)C(=O)N[C@@H](CCCN=C(N)N)C(N)=O [KRIVQRIKDWLR]
MIC [1]: 4 µM (≈ 6.44 µg/mL)
MIC [2]: 4 µM (≈ 6.44 µg/mL)
MIC [3]: 2 µM (≈ 3.22 µg/mL)
MIC [4]: 8 µM (≈ 12.9 µg/mL)
MIC [5]: 1 µM (≈ 1.61 µg/mL)
MIC [6]: 2 µM (≈ 3.22 µg/mL)

Compound: CC[C@H](C)[C@H](NC(=O)[C@H](Cc1c[nH]c2ccccc12)NC(=O)[C@H](CCCN=C(N)N)NC(=O)[C@H](CC(C)C)NC(=O)[C@H](Cc1c[nH]c2ccccc12)NC(=O)[C@@H](N)CCCCN)C(=O)N[C@@H](CCCN=C(N)N)C(=O)N[C@@H](Cc1c[nH]c2ccccc12)C(=O)N[C@@H](CC(C)C)C(N)=O [KWLRWIRWL]
MIC [7]: 6.25 µM (≈ 8.47 µg/mL)

Compound: CC[C@H](C)[C@H](NC(=O)[C@H](Cc1c[nH]c2ccccc12)NC(=O)[C@H](C)NC(=O)[C@H](CCCN=C(N)N)NC(=O)[C@H](Cc1c[nH]c2ccccc12)NC(=O)[C@@H](N)CCCCN)C(=O)N[C@@H](CCCN=C(N)N)C(=O)N[C@@H](Cc1c[nH]c2ccccc12)C(=O)N[C@@H](CC(C)C)C(N)=O [KWRAWIRWL]
MIC [7]: 12.5 µM (≈ 16.4 µg/mL)

Compound: CC(C)C[C@H](NC(=O)[C@H](CC(C)C)NC(=O)[C@H](CCCCN)NC(=O)[C@H](CC(C)C)NC(=O)[C@H](CC(C)C)NC(=O)[C@H](Cc1c[nH]c2ccccc12)NC(=O)[C@H](CCCCN)NC(=O)[C@@H](N)CC(C)C)C(N)=O [LKWLLKLL]
MIC [7]: 12.5 µM (≈ 12.8 µg/mL)

Compound: CC(C)C[C@H](NC(=O)[C@H](CC(C)C)NC(=O)[C@H](CC(C)C)NC(=O)[C@H](CCCCN)NC(=O)[C@H](CC(C)C)NC(=O)[C@H](CC(C)C)NC(=O)[C@H](CCCCN)NC(=O)[C@H](CC(C)C)NC(=O)[C@@H](N)CC(C)C)C(N)=O [LLKLLKLLL]
MIC [7]: 3.13 µM (≈ 3.34 µg/mL)

Compound: CC(C)C[C@H](NC(=O)[C@H](CC(C)C)NC(=O)[C@H](CCCCN)NC(=O)[C@H](CC(C)C)NC(=O)[C@H](CC(C)C)NC(=O)[C@H](CC(C)C)NC(=O)[C@H](CCCCN)NC(=O)[C@H](CC(C)C)NC(=O)[C@@H](N)CC(C)C)C(=O)O [LLKLLLKLL]
MIC [7]: ≥ 100 µM

Compound: CC(C)C[C@H](NC(=O)[C@H](CCCCN)NC(=O)[C@H](CC(C)C)NC(=O)[C@H](CC(C)C)NC(=O)[C@H](CC(C)C)NC(=O)[C@H](CCCCN)NC(=O)[C@H](CC(C)C)NC(=O)[C@@H](N)CC(C)C)C(N)=O [LLKLLLKL]
MIC [7]: ≥ 100 µM
